Data set [1] in a line: Kinetic dissolution / fluid stability in fed state simulated intestinal fluid (FedSIF). In kind it is physicochemical. The source says:
FIG. 9 is a bar graph of kinetic dissolution data for Compound 1 in fed state simulated intestinal fluid (FedSIF) solutions in the presence of Compound 2 in a neat coSDD substantially free of polymer and alone as measured by concentration versus time.
FIG. 10 is a bar graph of kinetic dissolution data for Compound 2 in FedSIF solutions in the presence of Compound 1 in a neat coSDD substantially free of polymer and alone as measured by concentration versus time.
The present invention features compositions where properties such as physical stability and dissolution rates are improved when one therapeutic agent is in the presence of another. […] FIG. 9 depicts fluid stability of Compound 1 in fed state simulated intestinal fluid (FedSIF). The set of bars labeled Neat 1:1 coSDD is the neat coSDD of Compound 1 and Compound 2 substantially free of polymer featured in the present invention. Along the y axis is concentration of Compound 1 in mg/ml and each bar along the x axis represents time: 0.5 h, 1 h, 3 h, 5 h, 29 h, and 72 h.
FIG. 10 depicts fluid stability of Compound 2 in compositions of the present invention in FedSIF. The set of bars labeled Neat 1:1 coSDD is the neat coSDD of Compound 1 and Compound 2 substantially free of polymer featured in the present invention.

A short description of data set [2]: Compound 1 crystallization kinetics at elevated temperature and 75% relative humidity. The conditions noted are these: for Crystallization / stability towards crystallization: 75% relative humidity; for Compound 1 crystallized: at about 25 hours; for stability towards crystallization: 80° C. and 70° C. (FIGS. 12, 13). In kind it is physicochemical. On the procedure:
FIG. 12 is a plot of crystallization kinetics data for Compound 1 at 80° C. and 75% relative humidity when in a Compound 2 free tablet (circles), a spray dried dispersion (squares), and a tablet comprising Compound 2 (triangles).
FIG. 13 is a plot of crystallization kinetics data for Compound 1 at 70° C. and 75% relative humidity when in a Compound 2 free tablet (circles), a spray dried dispersion (squares), and a tablet comprising Compound 2 (triangles).
FIGS. 12 and 13 depict the Compound 1 crystallization kinetics under 75% relative humidity and 80° C. and 70° C., respectively. Triangles represent a tablet formulation of a blend of the two separate spray dried dispersions of Compound 1 and Compound 2. Circles represent the same tablet formulation just lacking Compound 2. Squares represent the separate spray dried dispersion of Compound 1.
The phenomena of one therapeutic agent having improved properties in the presence of another therapeutic agent is not limited to the neat co-spray dried dispersions substantially free of polymer previously described. […] Table 2 lists the % crystallization of an 80% by weight SDD of Compound 1 over time at 80° C. at 75% relative humidity in the absence of Compound 2. Table 3 lists the % crystallization of Compound 1 in the presence of Compound 2 in a tablet of the present invention comprising a blend of Compound 1 SDD and Compound 2 SDD at […] at 75% relative humidity.

A short description of data set [3]: Dog pK of tablets (Compound 2 exposure). It counts as in vivo. From the text: FIG. 11 depicts the results of dissolution rate experiments for a tablet comprising the neat co-spray dried dispersion of Compound 1 and Compound 2 (circles) and a tablet comprising a spray dried dispersion of Compound 2 alone and polymer (triangles). […] When Compound 2 is in the presence of Compound 1, the maximum concentration and area under the curve increases by 73% and 47%, respectively, relative to Compound 2 alone.

Data set [4] is described as follows: Dissolution rate experiments in fasted simulated fluids. It counts as physicochemical. Conditions: tablet of neat co-spray dried dispersion of Compound 1 and Compound 2 vs tablet of SDD of Compound 2 alone and polymer; fasted simulated fluids (FIG. 11). The source says:
FIG. 11 is a plot of dissolution data for Compound 2 in fasted simulated fluids alone and in the presence of Compound 1 in a neat coSDD substantially free of polymer. […] FIG. 11 depicts the results of dissolution rate experiments for a tablet comprising the neat co-spray dried dispersion of Compound 1 and Compound 2 (circles) and a tablet comprising a spray dried dispersion of Compound 2 alone and polymer (triangles).

Setting [5] is: dog pK, ratio Neat coSDD tablet / Individual Tablets (Compound 2 alone).
Setting [6] is: dog, Compound 2 in the presence of Compound 1 relative to Compound 2 alone.

The source of these data is US10206877B2, “Pharmaceutical compositions for the treatment of cystic fibrosis transmembrane conductance regulator mediated diseases” (Vertex Pharmaceuticals Incorporated, priority 2014, dated 2019).

Consider `CC(C)(CO)c1cc2cc(NC(=O)C3(c4ccc5c(c4)OC(F)(F)O5)CC3)c(F)cc2n1C[C@@H](O)CO` [Compound 1, (R)-1-(2,2-difluorobenzo[d][1,3]dioxol-5-yl)-N-(1-(2,3-dihydroxypropyl)-6-fluoro-2-(1-hydroxy-2-methylpropan-2-yl)-1H-indol-5-yl)cyclopropanecarboxamide], for which the “concentration stability of Compound 1 in FedSIF” value in data set [1] (1:1 coSDD (20% HPMCAS) vs Compound 1 SDD (50% HPMCAS), over 72 h (FIG. 9)) was “concentration stability is greater”; in data set [1] (2:1 coSDD (20% HPMCAS) vs Compound 1 SDD (50% HPMCAS), over 72 h (FIG. 9)), “more consistent”. The “stability of Compound 1 concentration in FedSIF” value in data set [1] (Neat 1:1 coSDD (no polymer) vs Compound 1 SDD (50% HPMCAS), over 72 h (FIG. 9)) was “greater and more consistent stability”. Moreover, the Crystallization in data set [2] (80% by weight SDD of Compound 1, absence of Compound 2, 80° C., 0 Hrs.) is 0%; in data set [2] (80% by weight SDD of Compound 1, absence of Compound 2, 80° C., 5.2 Hrs.), 0%; in data set [2] (80% by weight SDD of Compound 1, absence of Compound 2, 80° C., 6 Hrs.), 0%; in data set [2] (80% by weight SDD of Compound 1, absence of Compound 2, 80° C., 9 Hrs.) it was 0.7%; in data set [2] (80% by weight SDD of Compound 1, absence of Compound 2, 80° C., 14.7 Hrs.), 5%; in data set [2] (80% by weight SDD of Compound 1, absence of Compound 2, 80° C., 25 Hrs.), 46.4%. For the same compound, the Crystallization in data set [2] (80% by weight SDD of Compound 1, absence of Compound 2, 80° C., 168 Hrs.) is reported as 88%; in data set [2] (tablet comprising a blend of Compound 1 SDD and Compound 2 SDD, 80 CC, 0 Hrs.) it was 0%; in data set [2] (tablet comprising a blend of Compound 1 SDD and Compound 2 SDD, 80 CC, 7 Hrs.) it was 3%; in data set [2] (tablet comprising a blend of Compound 1 SDD and Compound 2 SDD, 80 CC, 14 Hrs.), 6%; in data set [2] (tablet comprising a blend of Compound 1 SDD and Compound 2 SDD, 80 CC, 21 Hrs.) it was 8%; in data set [2] (tablet comprising a blend of Compound 1 SDD and Compound 2 SDD, 80 CC, 26 Hrs.), 10%. The entries for the “Compound 1 crystallized” value in data set [2] (in the absence of Compound 2) and in data set [2] (when Compound 2 was present) were 46% and 10%, respectively. Moreover, the stability towards crystallization entry in data set [2] (tablet blend of the two separate SDDs vs Compound 2 free tablet) was “significantly more stable towards crystallization”; in data set [2] (tablet formulation with Compound 2 vs separate spray dried dispersion of Compound 1) it was “also more stable”.
As for `CC(C)(C)c1cc(C(C)(C)C)c(NC(=O)c2c[nH]c3ccccc3c2=O)cc1O` [Compound 2, N-[2,4-bis(1,1-dimethylethyl)-5-hydroxyphenyl]-1,4-dihydro-4-oxoquinoline-3-carboxamide], in data set [3] (setting [5]), the “AUC wt norm, Geometric Mean Ratio” value is recorded as 146.73 and the “Cmax wt norm, Geometric Mean Ratio” value was 172.93. In data set [3] (setting [6]), the “increase of area under the curve” value is on record as 47% and the “increase of maximum concentration” value is on record as 73%. Besides, the exposure in vivo result in data set [3] (dog, tablet of neat coSDD relative to tablet of Compound 2 alone) is “statistically significant increases in exposure”. Besides, the “concentration stability of Compound 2 in FedSIF” value in data set [1] (1:1 coSDD (20% HPMCAS) vs Compound 2 SDD (20% HPMCAS), over 72 h (FIG. 10)) was “concentration stability is greater”. Besides, the “concentration stability of Compound 2 in FedSIF” value in data set [1] (2:1 coSDD (20% HPMCAS) vs Compound 2 SDD (20% HPMCAS), over 72 h (FIG. 10)) is “more consistent”. Besides, the “stability of Compound 2 concentration in FedSIF” value in data set [1] (Neat 1:1 coSDD (no polymer) vs Compound 2 SDD (20% HPMCAS), over 72 h (FIG. 10)) is “increased stability”. In addition, in data set [4], the “dissolution rate of Compound 2” value was “significant increase in dissolution rates”.
